This note sets out measurements from ChEMBL document CHEMBL5137068, “Discovery of Hexahydrofuro[3,2-b]furans as New Kinase-Selective and Orally Bioavailable JAK3 Inhibitors for the Treatment of Leukemia Harboring a JAK3 Activating Mutant” (J Med Chem, 2022).

SMILES strings stand for the structures. pIC50: −log10 of the molar value.

Data set [1] in a line: Cmax in 12 hr fasted SPF Sprague-Dawley rat at 15 mg/kg, po upon 2 hrs fasting post-administration measured upto 24 hrs. Format: ADME, organism-based. On the set-up: time < 24 hrs, dose 15 mg/kg, route po. Particulars: in vivo.
Data set [2] can be described thus: AUC(0 to infinity) in 12 hr fasted SPF Sprague-Dawley rat at 5 mg/kg, iv upon 2 hrs fasting post-administration measured upto 24 hrs. Format: ADME, organism-based. On the set-up: dose 5 mg/kg, time < 24 hrs, route iv. Conditions: in vivo.
Data set [3] concerns BaF3. Briefly: cells. Particulars: Mus musculus, BaF3, 72 h.
Description: Antiproliferative activity against mouse BaF3 parent cell measured after 72 hrs by CCK-8 assay
Data set [4] can be described thus: Half life in 12 hr fasted SPF Sprague-Dawley rat at 15 mg/kg, po upon 2 hrs fasting post-administration measured upto 24 hrs. Format: ADME, organism-based. Particulars: in vivo.
Data set [5] can be described thus: AUC(0 to infinity) in 12 hr fasted SPF Sprague-Dawley rat at 15 mg/kg, po upon 2 hrs fasting post-administration upto 24 hrs. Particulars: in vivo. On the set-up: dose 15 mg/kg, time < 24 hrs, route po. Format: ADME, organism-based.
In data set [6] the test system is BaF3. Kind of data set: cells. Particulars: Mus musculus, BaF3, 72 h. The source holds these as a separate data set.
A short description of data set [7]: Cmax in 12 hr fasted SPF Sprague-Dawley rat at 5 mg/kg, iv upon 2 hrs fasting post-administration measured upto 24 hrs. Format: ADME, organism-based. Further details: dose 5 mg/kg, time < 24 hrs, route iv. Particulars: in vivo.
The nature of data set [8]: Metabolic stability in rat liver microsome assessed as half life preincubated for 5 mins followed by NADPH addition measured upto 45 mins by LC/MS analysis. Particulars: liver microsomes, time < 50 min. Format: ADME. A general note: Liver microsomes are a subcellular fraction often used to study metabolism.
Data set [9] concerns BaF3. Kind of data set: cells. Conditions: Mus musculus, BaF3, 72 h. This is another data set of the same source.
Data set [10] in a line: Clearance in 12 hr fasted SPF Sprague-Dawley rat at 5 mg/kg, iv upon 2 hrs fasting post-administration measured upto 24 hrs. Format: ADME, organism-based. Conditions: in vivo.
Data set [11] is described as follows: Oral bioavailability in 12 hr fasted SPF Sprague-Dawley rat at 15 mg/kg upon 2 hrs fasting post-administration measured upto 24 hrs. Conditions: in vivo. Format: ADME, organism-based.
Another data set deals with U-937. Kind of data set: cells. Particulars: Homo sapiens, U-937, 72 h.
Data set [12] has as its system BaF3. Briefly: cells. Particulars: Mus musculus, BaF3, 72 h. This is another data set of the same source.
A short description of data set [13]: Half life in 12 hr fasted SPF Sprague-Dawley rat at 5 mg/kg, iv upon 2 hrs fasting post-administration measured upto 24 hrs. Format: ADME, organism-based. Particulars: in vivo.
Data set [14] concerns the target T1, Tyrosine-protein kinase JAK3 (Homo sapiens, UniProt P52333).
T1 sequence (P52333 whole entry): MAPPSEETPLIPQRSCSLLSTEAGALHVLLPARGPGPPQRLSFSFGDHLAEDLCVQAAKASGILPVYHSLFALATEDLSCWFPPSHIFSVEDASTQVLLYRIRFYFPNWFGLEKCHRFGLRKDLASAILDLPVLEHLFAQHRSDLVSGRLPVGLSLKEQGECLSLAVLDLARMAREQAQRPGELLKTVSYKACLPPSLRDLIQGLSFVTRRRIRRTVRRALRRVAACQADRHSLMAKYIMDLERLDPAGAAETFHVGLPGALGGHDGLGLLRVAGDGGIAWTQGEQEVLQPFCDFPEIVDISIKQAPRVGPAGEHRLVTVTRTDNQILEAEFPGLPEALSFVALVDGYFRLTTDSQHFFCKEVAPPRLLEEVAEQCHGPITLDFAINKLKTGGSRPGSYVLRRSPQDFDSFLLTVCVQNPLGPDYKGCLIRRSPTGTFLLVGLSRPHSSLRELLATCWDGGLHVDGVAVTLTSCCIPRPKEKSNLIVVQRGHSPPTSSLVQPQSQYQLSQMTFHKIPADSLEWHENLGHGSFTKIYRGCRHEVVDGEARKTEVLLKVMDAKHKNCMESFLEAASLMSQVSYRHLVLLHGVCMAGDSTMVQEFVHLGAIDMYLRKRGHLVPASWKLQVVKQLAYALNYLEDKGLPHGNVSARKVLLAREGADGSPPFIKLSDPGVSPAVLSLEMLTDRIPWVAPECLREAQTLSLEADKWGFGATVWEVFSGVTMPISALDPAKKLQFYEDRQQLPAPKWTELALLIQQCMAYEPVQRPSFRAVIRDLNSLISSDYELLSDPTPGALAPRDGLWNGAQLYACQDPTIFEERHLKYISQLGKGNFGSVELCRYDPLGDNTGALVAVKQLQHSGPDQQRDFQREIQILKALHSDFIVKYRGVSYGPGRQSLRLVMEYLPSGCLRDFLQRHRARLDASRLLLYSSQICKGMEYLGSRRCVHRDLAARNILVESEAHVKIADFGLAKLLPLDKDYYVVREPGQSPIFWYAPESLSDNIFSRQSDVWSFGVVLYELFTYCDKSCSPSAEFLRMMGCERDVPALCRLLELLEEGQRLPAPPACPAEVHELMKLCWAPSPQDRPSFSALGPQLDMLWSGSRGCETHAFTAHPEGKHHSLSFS
Description: Inhibition of GST tagged recombinant human JAK3 expressed in baculovirus infection system by FRET assay

The target in data set [15] is Tyrosine-protein kinase JAK1 (Homo sapiens, UniProt P23458).
Data set [16] deals with Non-receptor tyrosine-protein kinase TYK2 (Homo sapiens, UniProt P29597).
Description: Inhibition of human TYK2 by FRET assay
In data set [17] the target is Tyrosine-protein kinase JAK2 (Homo sapiens, UniProt O60674).
Chain of Tyrosine-protein kinase JAK2 (O60674 whole entry): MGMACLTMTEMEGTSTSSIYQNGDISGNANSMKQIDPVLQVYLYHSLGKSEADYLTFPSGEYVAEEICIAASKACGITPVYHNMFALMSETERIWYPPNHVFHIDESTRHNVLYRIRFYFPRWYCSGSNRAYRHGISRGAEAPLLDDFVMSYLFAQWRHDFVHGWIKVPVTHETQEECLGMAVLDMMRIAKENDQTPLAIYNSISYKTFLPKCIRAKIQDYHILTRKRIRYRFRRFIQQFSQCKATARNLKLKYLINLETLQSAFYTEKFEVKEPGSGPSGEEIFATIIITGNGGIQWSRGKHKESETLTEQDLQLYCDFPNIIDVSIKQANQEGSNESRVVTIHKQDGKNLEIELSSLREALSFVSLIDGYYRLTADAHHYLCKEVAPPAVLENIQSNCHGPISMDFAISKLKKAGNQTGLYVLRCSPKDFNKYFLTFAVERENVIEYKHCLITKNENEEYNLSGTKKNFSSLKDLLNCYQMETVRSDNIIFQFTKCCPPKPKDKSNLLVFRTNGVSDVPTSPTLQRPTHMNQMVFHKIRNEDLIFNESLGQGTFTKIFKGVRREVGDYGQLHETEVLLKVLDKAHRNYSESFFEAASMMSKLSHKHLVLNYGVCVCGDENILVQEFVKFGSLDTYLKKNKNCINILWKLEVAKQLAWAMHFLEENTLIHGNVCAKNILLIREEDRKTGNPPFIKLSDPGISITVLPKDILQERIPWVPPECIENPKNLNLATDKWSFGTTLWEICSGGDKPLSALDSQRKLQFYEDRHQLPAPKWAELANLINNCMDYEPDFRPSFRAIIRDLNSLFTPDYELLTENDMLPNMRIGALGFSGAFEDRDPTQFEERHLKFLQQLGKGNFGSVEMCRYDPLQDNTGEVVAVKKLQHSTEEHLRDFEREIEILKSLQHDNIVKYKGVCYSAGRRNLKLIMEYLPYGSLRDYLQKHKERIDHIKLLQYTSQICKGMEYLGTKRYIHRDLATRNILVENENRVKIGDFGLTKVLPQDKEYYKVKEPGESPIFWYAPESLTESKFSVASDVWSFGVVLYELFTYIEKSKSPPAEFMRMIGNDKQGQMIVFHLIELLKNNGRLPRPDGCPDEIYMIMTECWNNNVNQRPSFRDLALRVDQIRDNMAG
Description: Inhibition of GST tagged recombinant human JAK2 expressed in baculovirus infection system by FRET assay

Chain of Tyrosine-protein kinase JAK1 (P23458 whole entry): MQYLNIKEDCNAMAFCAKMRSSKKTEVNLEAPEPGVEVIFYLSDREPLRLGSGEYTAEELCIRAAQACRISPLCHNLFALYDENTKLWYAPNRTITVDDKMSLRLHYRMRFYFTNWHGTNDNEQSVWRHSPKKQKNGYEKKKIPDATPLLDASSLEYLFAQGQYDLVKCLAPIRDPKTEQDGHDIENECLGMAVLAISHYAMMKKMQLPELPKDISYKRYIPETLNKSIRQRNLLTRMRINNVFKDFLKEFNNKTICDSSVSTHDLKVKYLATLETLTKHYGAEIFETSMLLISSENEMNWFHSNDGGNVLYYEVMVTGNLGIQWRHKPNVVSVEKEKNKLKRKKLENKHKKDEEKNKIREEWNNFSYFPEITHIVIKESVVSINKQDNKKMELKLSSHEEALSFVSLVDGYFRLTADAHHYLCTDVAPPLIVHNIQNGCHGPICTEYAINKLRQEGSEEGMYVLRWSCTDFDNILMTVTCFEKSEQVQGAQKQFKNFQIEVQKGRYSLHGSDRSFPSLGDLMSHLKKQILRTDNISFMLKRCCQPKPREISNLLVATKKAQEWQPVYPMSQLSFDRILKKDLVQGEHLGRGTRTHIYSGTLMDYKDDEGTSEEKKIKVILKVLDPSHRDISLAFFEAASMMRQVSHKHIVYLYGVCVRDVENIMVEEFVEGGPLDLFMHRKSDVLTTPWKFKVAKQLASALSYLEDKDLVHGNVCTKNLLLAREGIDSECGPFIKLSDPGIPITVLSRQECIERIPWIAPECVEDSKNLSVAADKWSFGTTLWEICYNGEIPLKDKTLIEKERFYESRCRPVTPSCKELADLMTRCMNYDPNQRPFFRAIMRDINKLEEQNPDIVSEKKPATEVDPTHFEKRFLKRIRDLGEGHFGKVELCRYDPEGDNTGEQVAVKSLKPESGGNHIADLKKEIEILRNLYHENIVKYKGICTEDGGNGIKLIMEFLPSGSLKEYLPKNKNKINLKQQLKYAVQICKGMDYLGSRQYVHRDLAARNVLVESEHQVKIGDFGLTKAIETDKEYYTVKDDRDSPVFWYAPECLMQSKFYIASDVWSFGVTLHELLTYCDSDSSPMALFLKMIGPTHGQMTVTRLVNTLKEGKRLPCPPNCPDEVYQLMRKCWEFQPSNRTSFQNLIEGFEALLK
Chain of Non-receptor tyrosine-protein kinase TYK2 (P29597 whole entry): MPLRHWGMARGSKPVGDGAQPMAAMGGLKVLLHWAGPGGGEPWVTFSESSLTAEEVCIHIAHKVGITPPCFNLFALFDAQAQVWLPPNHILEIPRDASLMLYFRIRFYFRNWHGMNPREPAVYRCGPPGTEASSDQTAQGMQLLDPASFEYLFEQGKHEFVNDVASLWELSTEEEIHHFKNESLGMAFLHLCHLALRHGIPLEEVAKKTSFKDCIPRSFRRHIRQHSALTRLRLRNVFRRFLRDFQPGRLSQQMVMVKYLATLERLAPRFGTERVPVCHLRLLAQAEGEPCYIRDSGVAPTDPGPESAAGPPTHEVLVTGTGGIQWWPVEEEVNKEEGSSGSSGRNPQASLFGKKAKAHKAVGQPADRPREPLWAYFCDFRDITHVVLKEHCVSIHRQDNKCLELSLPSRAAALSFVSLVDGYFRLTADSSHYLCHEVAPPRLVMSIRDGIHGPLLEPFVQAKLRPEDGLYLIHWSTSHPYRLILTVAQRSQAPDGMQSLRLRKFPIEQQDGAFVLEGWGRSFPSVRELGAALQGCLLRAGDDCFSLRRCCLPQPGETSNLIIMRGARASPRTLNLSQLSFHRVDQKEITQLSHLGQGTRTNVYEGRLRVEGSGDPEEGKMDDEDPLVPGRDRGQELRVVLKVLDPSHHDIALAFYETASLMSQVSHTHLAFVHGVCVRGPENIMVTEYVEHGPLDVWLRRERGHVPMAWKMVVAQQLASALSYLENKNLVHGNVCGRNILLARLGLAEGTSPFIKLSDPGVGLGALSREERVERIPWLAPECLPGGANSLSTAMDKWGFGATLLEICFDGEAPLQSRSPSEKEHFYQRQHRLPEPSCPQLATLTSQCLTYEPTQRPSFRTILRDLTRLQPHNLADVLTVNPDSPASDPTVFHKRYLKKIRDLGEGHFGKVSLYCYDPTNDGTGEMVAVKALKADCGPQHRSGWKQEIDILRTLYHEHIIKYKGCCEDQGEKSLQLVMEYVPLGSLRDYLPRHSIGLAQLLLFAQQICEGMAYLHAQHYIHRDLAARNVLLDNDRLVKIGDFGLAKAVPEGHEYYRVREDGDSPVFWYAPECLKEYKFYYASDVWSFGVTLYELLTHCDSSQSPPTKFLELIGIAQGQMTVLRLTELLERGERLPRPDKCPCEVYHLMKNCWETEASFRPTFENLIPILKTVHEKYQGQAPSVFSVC

`C=CC(=O)Nc1cc(Nc2ncc(Cl)c(O[C@@H]3CO[C@H]4[C@@H]3OC[C@H]4O)n2)ccc1N(C)CCN(C)C`: the Cmax in data set [1] was 79.1 ng/mL; in data set [7], 440 ng/mL. Moreover, the AUC(0-inf) in data set [2] came out at 280 ng·h/mL; in data set [5], 105 ng·h/mL. Further, the pIC50 in the data set on BaF3 [3] is 6.99; in the data set with BaF3 [6], 6.83; in the data set with BaF3 [9], 7.60; in the data set with U-937 it was 7.82; in the data set on BaF3 [12] it was 6.88. Besides, the half-life is 1.02 h in data set [4] and 0.8 h in data set [13]. The half-life at […] in data set [8] amounted to 2 h. The molecule further registered a CL in data set [10] of 299.15%. The same molecule returned a bioavailability in data set [11] of 12.4%.
Take `C=CC(=O)Nc1cc(Nc2ncc(Cl)c(O[C@@H]3CO[C@H]4[C@@H]3OC[C@H]4OCC)n2)ccc1N(C)CCN(C)C`: the pIC50 in the data set on BaF3 [3] was 6.79; in the data set on BaF3 [6], 6.86; with BaF3 [9], 6.96; in the data set on U-937, 7.52; in the data set on BaF3 [12] it was 6.50.
Turning to `C=CC(=O)N1C[C@H](Nc2ncnc3[nH]ccc23)CC[C@@H]1C` [RITLECITINIB], the pIC50 in the data set with BaF3 [3] is under 5.00; with BaF3 [6], under 5.00; with BaF3 [9], 7.55; with U-937, 7.71; in the data set on BaF3 [12], under 5.00.
In the case of `CN1CCN(C2CCN(c3ccc(Nc4ncc(Cl)c(O[C@@H]5CO[C@H]6[C@@H]5OC[C@H]6O)n4)cc3Cl)CC2)CC1`, the pIC50 is 5.86 in the data set with BaF3 [3], under 5.00 in the data set with BaF3 [6], 5.78 with BaF3 [9] and under 5.00 with BaF3 [12].
In turn, `C#CCCN(C)CCN(C)c1ccc(Nc2ncc(Cl)c(O[C@@H]3CO[C@H]4[C@@H]3OC[C@H]4OC)n2)cc1NC(=O)C=C` showed a pIC50 in [14] of 8.77.
The same measure, in the same setting: as for `C=CC(=O)Nc1cc(Nc2ncc(Cl)c(O[C@@H]3CO[C@H]4[C@@H]3OC[C@H]4O)n2)ccc1N1CCOCC1`, the figure is 8.80.
Same read-out and setting: the figure for `C=CC(=O)Nc1cc(Nc2ncc(Cl)c(O[C@@H]3CO[C@H]4[C@@H]3OC[C@H]4O)n2)ccc1N1C[C@H]2C[C@@H]1CN2C` is 8.82.
Take `C=CC(=O)Nc1cccc(Nc2ncc(Cl)c(O[C@@H]3CO[C@H]4[C@@H]3OC[C@H]4O)n2)c1`: the pIC50 was 6.25 in data set [15], 7.03 in [16], 8.92 in data set [14] and 5.85 in [17].
With `C=CC(=O)Nc1cc(Nc2ncc(Cl)c(O[C@@H]3CO[C@H]4[C@@H]3OC[C@H]4OC(C)C)n2)ccc1N(C)CCN(C)C`, the pIC50 was 6.69 with BaF3 [3]; 6.78 in the data set on BaF3 [6]; 6.75 in the data set with BaF3 [9]; 8.89 in data set [14]; 7.36 in the data set on U-937; 6.47 with BaF3 [12].
On to `C=CC(=O)Nc1cc(Nc2ncc(Cl)c(O[C@@H]3CO[C@H]4[C@@H]3OC[C@H]4O)n2)ccc1N1CCC(N(C)C)C1` (stereo partly drawn), for which the pIC50 in data set [14] is 8.72.
Regarding `C=CC(=O)Nc1cc(Nc2ncc(Cl)c(O[C@@H]3CO[C@H]4[C@@H]3OC[C@@H]4F)n2)ccc1N(C)CCN(C)C`, the pIC50 is 6.32 in the data set with BaF3 [3]; 6.38 in the data set on BaF3 [6]; 7.05 with BaF3 [9]; 7.39 in the data set on U-937; 6.36 with BaF3 [12].
For the molecule `C=CC(=O)Nc1cc(Nc2ncc(Cl)c(O[C@@H]3CO[C@H]4[C@@H]3OCC4(F)F)n2)ccc1N(C)CCN(C)C`, the pIC50 in the data set with BaF3 [3] was 6.67; with BaF3 [6] it was 6.73; with BaF3 [9] it was 7.25; in data set [14] it was 8.92; with U-937, 7.47; in the data set with BaF3 [12], 6.75.
In the case of `C=CC(=O)Nc1cc(Nc2ncc(Cl)c(O[C@@H]3CO[C@H]4[C@@H]3OC[C@H]4O)n2)ccc1N1CCC(N2CCN(C)CC2)CC1`, the pIC50 is 5.81 in data set [15]; 7.39 in the data set on BaF3 [3]; 6.43 in data set [16]; 7.33 in the data set with BaF3 [6]; 7.70 with BaF3 [9]; 8.74 in [14]. The pIC50 was 7.44 with U-937, 6.91 in the data set on BaF3 [12] and 5.99 in data set [17].
For the molecule `C=CC(=O)Nc1cc(Nc2ncc(Cl)c(O[C@@H]3CO[C@H]4[C@@H]3OC[C@H]4F)n2)ccc1N(C)CCN(C)C`, the pIC50 with BaF3 [3] is 6.29; with BaF3 [6] it was 6.38; in the data set with BaF3 [9], 7.33; in data set [14] it was 8.89; in the data set on U-937 it was 7.30; with BaF3 [12] it was 6.34.

What is called Cmax is the maximum level reached in the sampled fluid or tissue. For orientation: AUC(0-inf) means total exposure, with the tail of the curve extrapolated. High values mean more exposure, low ones less exposure. The term pIC50 denotes the negative decadic logarithm of the IC50, by convention in mol/L. A word on the half-life: it is how long it takes for the measured level to halve. By bioavailability is commonly meant the share of a dose that reaches the circulation, judged against a reference dose that is usually intravenous. A higher bioavailability goes with good availability.
